Measured values taken from patent publication US10570152B2, “Antibacterial therapeutics and prophylactics” (VYOME BIOSCIENCES PVT. LTD., priority 2015, dated 2020).
≈ marks a conversion by molar mass, not a printed value.

Experiments:
Test in all cases: MIC by micro broth dilution
Format in all cases: cell-based
[1] = test system: E. faecium NCIM 5421; settings: for MIC: Enterococcus faecium, NCIM5421, read-out: Minimum inhibitory concentration (MIC)
Procedure: (§1) MIC of DART molecules were determined by micro broth dilution as per CLSI guidelines. Bacterial strains were cultured in Brain Heart Infusion Agar (BHIA) at 37° C. for 24 h. For MIC determination, BHI broth (100 μl) was added to each of the wells of a 96 well plate. 100 μl of broth containing drug was added to the first well (1A to 1H) and thereafter serial (double) dilutions were carried out for up to 10 wells (column 1 to column 10 of the 96 well plate). Bacterial inoculum was prepared by adjusting the bacterial culture turbidity to 0.5 McFarland standard (approximately 1.5×10^8 cells/ml) and further diluted (100 times with sterile BHI broth). Diluted bacterial suspension (100 μl) was added to each well except sterility control wells (column 12 of 96 well plate). The plates were incubated at 37° C. for 24 h. The MIC of the test compound was measured after addition of Alamar blue dye.

[2] = test system: S. epidermidis ATCC 35984; settings: for MIC: Staphylococcus epidermidis, ATCC35984, read-out: Minimum inhibitory concentration (MIC)
Procedure: as §1

[3] = test system: A. baumannii CCARM 12001; settings: for MIC: Acinetobacter baumannii, CCARM12001, read-out: Minimum inhibitory concentration (MIC)
Procedure: as §1

[4] = test system: S. aureus ATCC 43300; settings: S. aureus ATCC 43300; for MIC: Staphylococcus aureus, ATCC43300, read-out: Minimum inhibitory concentration (MIC)
Procedure: as §1

[5] = test system: A. baumannii CCARM 12020; settings: for MIC: Acinetobacter baumannii, CCARM12020, read-out: Minimum inhibitory concentration (MIC)
Procedure: as §1

[6] = test system: P. aeruginosa CCARM 2161; settings: Pseudomonas aeruginosa, CCARM2161, read-out: Minimum inhibitory concentration (MIC)
Procedure: as §1

[7] = test system: E. aerogenes M2-1; settings: for MIC: Klebsiella aerogenes, M21, read-out: Minimum inhibitory concentration (MIC)
Procedure: as §1

[8] = test system: P. aeruginosa ATCC 27853; settings: for MIC: Pseudomonas aeruginosa, ATCC27853, read-out: Minimum inhibitory concentration (MIC)
Procedure: as §1

[9] = test system: E. coli MTCC 1687; settings: for MIC: Escherichia coli, MTCC1687, read-out: Minimum inhibitory concentration (MIC)
Procedure: as §1

[10] = test system: A. baumannii ATCC 1906; settings: for MIC: Acinetobacter baumannii, ATCC1906, read-out: Minimum inhibitory concentration (MIC)
Procedure: as §1

[11] = test system: P. aeruginosa CCARM 2204; settings: Pseudomonas aeruginosa, CCARM2204, read-out: Minimum inhibitory concentration (MIC)
Procedure: as §1

[12] = test system: E. coli BAA 196; settings: for MIC: Escherichia coli, BAA196, read-out: Minimum inhibitory concentration (MIC)
Procedure: as §1

[13] = test system: S. aureus MTCC 6908; settings: for MIC: Staphylococcus aureus, MTCC6908, read-out: Minimum inhibitory concentration (MIC)
Procedure: as §1

[14] = test system: E. aerogenes NCIM 5139; settings: for MIC: Klebsiella aerogenes, NCIM5139, read-out: Minimum inhibitory concentration (MIC)
Procedure: as §1

[15] = test system: S. aureus CCARM 3505; settings: for MIC: Staphylococcus aureus, CCARM3505, read-out: Minimum inhibitory concentration (MIC)
Procedure: as §1

[16] = test system: S. epidermidis S12-1; settings: for MIC: Staphylococcus epidermidis, S121, read-out: Minimum inhibitory concentration (MIC)
Procedure: as §1

[17] = test system: K. pneumonia ATCC 13883; settings: for activity in words: Klebsiella pneumonia (susceptible); for MIC: Klebsiella pneumoniae, ATCC13883, read-out: Minimum inhibitory concentration (MIC)
Procedure: as §1

| SMILES | MIC [1] | MIC [2] | MIC [4] | MIC [7] | MIC [8] | MIC [9] | MIC [10] | MIC [11] | MIC [12] | MIC [13] | MIC [14] | MIC [15] | MIC [16] | activity in words [17] | MIC ([17]; K. pneumonia ATCC 13883) | further results |
| --- | --- | --- | --- | --- | --- | --- | --- | --- | --- | --- | --- | --- | --- | --- | --- | --- |
| Cc1ncc([N+](=O)[O-])n1CC(O)CN1CCN(c2cc3c(cc2F)c(=O)c(C(=O)O)c2n3C(C)S2)CC1 (centres unmarked) [Compound 1] | > 16 µg/mL | 0.13 µg/mL (≈ 0.244 µM) | 1 µg/mL (≈ 1.88 µM) | > 16 µg/mL | > 16 µg/mL | 16 µg/mL (≈ 30 µM) | > 16 µg/mL | > 16 µg/mL | 16 µg/mL (≈ 30 µM) | 1.5 µg/mL (≈ 2.82 µM) | > 16 µg/mL | 32 µg/mL (≈ 60.1 µM) | > 64 µg/mL |  |  | MIC [3]: > 16 µg/mL; MIC [5]: > 16 µg/mL; MIC [6]: > 16 µg/mL |
| CC1Sc2c(C(=O)O)c(=O)c3cc(F)c(N4CCN(CC(=O)Nc5ncc([N+](=O)[O-])s5)CC4)cc3n21 (centres unmarked) [Compound 6, 6-Fluoro-1-methyl-7-(4-(2-((5-nitrothiazol-2-yl)amino)-2-oxoethyl)piperazin-1-yl)-4-oxo-1H,4H-[1,3]-thiazeto[3,2-a]quinoline-3-carboxylic acid] | 0.25 µg/mL (≈ 0.468 µM) | < 0.03 µg/mL | < 0.13 µg/mL | 4 µg/mL (≈ 7.48 µM) | 8 µg/mL (≈ 15 µM) | 1 µg/mL (≈ 1.87 µM) | 8 µg/mL (≈ 15 µM) |  | 16 µg/mL (≈ 29.9 µM) | 0.1 µg/mL (≈ 0.187 µM) | 4 µg/mL (≈ 7.48 µM) | 4 µg/mL (≈ 7.48 µM) | 4 µg/mL (≈ 7.48 µM) | active | 0.25 µg/mL (≈ 0.468 µM) |  |
| O=C(N[C@@H]1CCCCN(c2c(F)cc3c(=O)c(C(=O)O)cn(C4CC4)c3c2Cl)C1)c1ccc([N+](=O)[O-])o1 [Compound 16] |  |  |  |  |  |  |  |  |  |  |  |  |  | active |  | Minimum inhibitory concentration (MIC) [1]: 0.12 µg/mL (≈ 0.225 µM); Minimum inhibitory concentration (MIC) [2]: <0.03 µg/mL; Minimum inhibitory concentration (MIC) [3]: 16 µg/mL (≈ 30 µM); Minimum inhibitory concentration (MIC) [4]: <0.01 µg/mL; Minimum inhibitory concentration (MIC) [5]: >16 µg/mL; Minimum inhibitory concentration (MIC) [7]: 4 µg/mL (≈ 7.51 µM); Minimum inhibitory concentration (MIC) [8]: 2 µg/mL (≈ 3.75 µM); Minimum inhibitory concentration (MIC) [9]: 4 µg/mL (≈ 7.51 µM); Minimum inhibitory concentration (MIC) [10]: .05 µg/mL (≈ 0.0938 µM); Minimum inhibitory concentration (MIC) [12]: >16 µg/mL; Minimum inhibitory concentration (MIC) [13]: 0.25 µg/mL (≈ 0.469 µM); Minimum inhibitory concentration (MIC) [14]: 2 µg/mL (≈ 3.75 µM); Minimum inhibitory concentration (MIC) [15]: 0.5 µg/mL (≈ 0.938 µM); Minimum inhibitory concentration (MIC) [16]: 0.13 µg/mL (≈ 0.244 µM); Minimum inhibitory concentration (MIC) ([17]; K. pneumonia ATCC 13883): 0.25 µg/mL (≈ 0.469 µM) |
| CC1Sc2c(C(=O)O)c(=O)c3cc(F)c(N4CCN(Cc5nc6ccc([N+](=O)[O-])cc6[nH]5)CC4)cc3n21 (centres unmarked) [Compound 18, 6-Fluoro-1-methyl-7-(4-((6-nitro-1H-benzo[d]imidazol-2-yl)methyl)piperazin-1-yl)-4-oxo-1H,4H-[1,3]thiazeto[3,2-a]quinoline-3-carboxylic acid] | 0.5 µg/mL (≈ 0.953 µM) | 0.25 µg/mL (≈ 0.477 µM) | 1 µg/mL (≈ 1.91 µM) | > 16 µg/mL | > 16 µg/mL | > 4 µg/mL | 1 µg/mL (≈ 1.91 µM) | > 16 µg/mL | > 4 µg/mL | 1 µg/mL (≈ 1.91 µM) | 0.25 µg/mL (≈ 0.477 µM) | > 4 µg/mL | > 16 µg/mL | active | 0.12 µg/mL (≈ 0.229 µM) | MIC [6]: > 16 µg/mL |
| CC1Sc2c(C(=O)O)c(=O)c3cc(F)c(N4CCN(Cc5nc6ccc(N)cc6[nH]5)CC4)cc3n21 (centres unmarked) [Compound 20, 7-(4-((6-Amino-1H-benzo[d]imidazol-2-yl)methyl)piperazin-1-yl)-6-fluoro-1-methyl-4-oxo-1H,4H-[1,3]thiazeto[3,2-a]quinoline-3-carboxylic acid] | 1 µg/mL (≈ 2.02 µM) | 0.13 µg/mL (≈ 0.263 µM) | 0.5 µg/mL (≈ 1.01 µM) | 4 µg/mL (≈ 8.09 µM) | 4 µg/mL (≈ 8.09 µM) | 1 µg/mL (≈ 2.02 µM) | 8 µg/mL (≈ 16.2 µM) |  | > 16 µg/mL | 8 µg/mL (≈ 16.2 µM) | 0.5 µg/mL (≈ 1.01 µM) | > 16 µg/mL | > 16 µg/mL | active | 0.25 µg/mL (≈ 0.506 µM) |  |
| CC1Sc2c(C(=O)O)c(=O)c3cc(F)c(N4CCN(C(=O)c5ccccn5)CC4)cc3n21 (centres unmarked) [Compound 31, 6-Fluoro-1-methyl-4-oxo-7-(4-picolinoylpiperazin-1-yl)-1H,4H-[1,3]thiazeto[3,2-a]quinoline-3-carboxylic acid] | 0.06 µg/mL (≈ 0.132 µM) | 0.13 µg/mL (≈ 0.286 µM) | 0.25 µg/mL (≈ 0.55 µM) | 8 µg/mL (≈ 17.6 µM) | 8 µg/mL (≈ 17.6 µM) | 2 µg/mL (≈ 4.4 µM) | 2 µg/mL (≈ 4.4 µM) |  | 4 µg/mL (≈ 8.8 µM) | 0.5 µg/mL (≈ 1.1 µM) | 1 µg/mL (≈ 2.2 µM) | 16 µg/mL (≈ 35.2 µM) | 8 µg/mL (≈ 17.6 µM) | active | 0.12 µg/mL (≈ 0.264 µM) |  |
| CC1Sc2c(C(=O)O)c(=O)c3cc(F)c(N4CCN(C(=O)c5cccc[n+]5[O-])CC4)cc3n21 (centres unmarked) [Compound 34, 2-(4-(3-Carboxy-6-fluoro-1-methyl-4-oxo-1H,4H-[1,3]thiazeto[3,2-a]quinolin-7-yl)piperazine-1-carbonyl)pyridine-1-oxide] | 1 µg/mL (≈ 2.13 µM) | 0.13 µg/mL (≈ 0.276 µM) | 0.13 µg/mL (≈ 0.276 µM) |  |  | > 16 µg/mL |  |  | > 16 µg/mL | 4 µg/mL (≈ 8.5 µM) |  | 8 µg/mL (≈ 17 µM) | 8 µg/mL (≈ 17 µM) |  |  |  |
| CC1Sc2c(C(=O)O)c(=O)c3cc(F)c(N4CCN(C(=O)CNC(=N)N)CC4)cc3n21 (centres unmarked) [Compound 43, 7-(4-(Carbamimidoylglycyl)piperazin-1-yl)-6-fluoro-1-methyl-4-oxo-1H,4H-[1,3]thiazeto[3,2-a]quinoline-3-carboxylic acid] | > 16 µg/mL | > 16 µg/mL | 8 µg/mL (≈ 17.8 µM) |  |  | 0.25 µg/mL (≈ 0.557 µM) |  |  | > 16 µg/mL | 8 µg/mL (≈ 17.8 µM) |  | > 16 µg/mL | > 16 µg/mL |  |  |  |
| CC1Sc2c(C(=O)O)c(=O)c3cc(F)c(N4CCN(C(=O)NC(=N)N)CC4)cc3n21 (centres unmarked) [Compound 44, 7-(4-(Carbamimidoylcarbamoyl)piperazin-1-yl)-6-fluoro-1-methyl-4-oxo-1H,4H-[1,3]thiazeto[3,2-a]quinoline-3-carboxylic acid] | > 16 µg/mL | 4 µg/mL (≈ 9.21 µM) | 4 µg/mL (≈ 9.21 µM) | 1 µg/mL (≈ 2.3 µM) | 4 µg/mL (≈ 9.21 µM) | 0.5 µg/mL (≈ 1.15 µM) | 16 µg/mL (≈ 36.8 µM) | > 16 µg/mL | > 16 µg/mL | 8 µg/mL (≈ 18.4 µM) | 1 µg/mL (≈ 2.3 µM) | > 16 µg/mL | > 16 µg/mL |  | 0.12 µg/mL (≈ 0.276 µM) | MIC [3]: > 16 µg/mL; MIC [5]: > 16 µg/mL |
